In patent US11440903B2, “Salt form and crystal form of compound as FGFR4 inhibitor and preparation method thereof” (GUANGDONG ZHONGSHENG PHARMACEUTICAL CO., LTD, priority 2017, dated 2022):

Assay: Solid stability test of the crystal forms (influence factors and acceleration tests; appearance, XRPD, HPLC content and impurities)
Assay type: physicochemical
Settings: for photostability (stability under light radiation), conclusion in words / stability in dark, conclusion in words / stability under acceleration conditions, conclusion in words / thermal stability (high temperature), conclusion in words: conclusion of influence factors and acceleration tests
Description: A sample of the crystal form A was placed on the bottom of a glass sample bottle, and spread to a thin layer. The sample stored under high temperature, high humidity, and acceleration conditions was placed in a bottle of which the mouth was packed with a pierced aluminum foil to ensure the sample to be sufficiently exposed to ambient air; the sample stored under light radiation conditions was placed at room temperature in a standing bottle of which the mouth was open, the sample was exposed to a light resource, and sampled for detection after being radiated by sufficient energy. Samples were taken and analyzed at various time points, and the test results were compared with the initial test results of 0 day, the inspection items included appearance, content and impurities, and the test results are shown in Table 9.
A sample of the crystal form B (10 mg) was placed on the bottom of a glass sample bottle, and spread to a thin layer. The sample stored under high temperature, high humidity, and acceleration conditions were placed in a bottle of which the mouth was packed with a pierced aluminum foil to ensure the sample to be sufficiently exposed to ambient air; the sample stored under light radiation conditions was placed at room temperature in a standing bottle of which the mouth was open, the sample was exposed to a light resource, and sampled for detection after being radiated by sufficient energy, the control sample stored in dark (open, the whole sample bottle was sealed with aluminum foil to keep the content in dark) and the sample stored under light radiation conditions were placed together to exclude environmental influence on the samples. Samples were taken and analyzed at various time points, and the test results were compared with the initial test results of 0 day, the inspection items included appearance, crystal form, content and impurities, the test results are shown in Table 10.
(§1) A sample of the crystal form C was taken and placed on the bottom of a glass sample bottle, and spread to a thin layer. The sample stored under high temperature, high humidity, and acceleration conditions was placed in a bottle of which the mouth was packed with a pierced aluminum foil to ensure the sample to be sufficiently exposed to ambient air; the sample stored under light radiation conditions was placed at room temperature in a standing bottle of which the mouth was open, the sample was exposed to a light resource, and sampled for detection after being radiated by sufficient energy. Samples were taken and analyzed at various time points, and the test results were compared with the initial test results of 0 day.
as §1, with “D” for “C”
A sample of the crystal form E (10 mg) was taken and placed on the bottom of a glass sample bottle, and spread to a thin layer. […]

[1] = Acceleration test (40° C./relative humidity of 75%, open), 1 month
[2] = Acceleration test (40° C./relative humidity of 75%, open), 10 days
[3] = Acceleration test (60° C./relative humidity of 75%, open), 1 month
[4] = Acceleration test (60° C./relative humidity of 75%, open), 10 days
[5] = High humidity (room temperature/relative humidity of 92.5%, open), 5 days
[6] = High humidity (room temperature/relative humidity of 92.5%, open), 10 days
[7] = High temperature (60° C., open), 5 days
[8] = High temperature (60° C., open), 10 days
[9] = Light radiation (total illumination: 1.2 × 10^6 Lux·hr/near ultraviolet: 200 w·hr/m^2, open), light radiation sample
[10] = Light radiation test, control sample in dark
[11] = Acceleration test (40° C./relative humidity of 75%, open), 2 months
[12] = Acceleration test (40° C./relative humidity of 75%, open), 3 months
[13] = Acceleration test (60° C./relative humidity of 75%, open), 2 months
[14] = Acceleration test (60° C./relative humidity of 75%, open), 3 months

C=CC(=O)N[C@H]1COC[C@H]1Nc1ncc(/C=C(\F)c2c(Cl)c(OC)cc(OC)c2Cl)cn1.CS(=O)(=O)O [Crystal Form E]
Appearance (0 day (initial)): White | Content (%) (0 day (initial)): 101.51% | Crystal Form (XRPD) (0 day (initial)): form E | Total Impurities (%) (0 day (initial)): 0.44% | Appearance [1]: White | Content (%) [1]: 102.95% | Crystal Form (XRPD) [1]: form E | Total Impurities (%) [1]: 0.33% | Appearance [2]: White | Content (%) [2]: 99.58% | Crystal Form (XRPD) [2]: form E | Total Impurities (%) [2]: 0.35% | Appearance [3]: White | Content (%) [3]: 102.48% | Crystal Form (XRPD) [3]: form E | Total Impurities (%) [3]: 0.40% | Appearance [4]: White | Content (%) [4]: 100.38% | Crystal Form (XRPD) [4]: form E | Total Impurities (%) [4]: 0.37% | Appearance [5]: White | Crystal Form (XRPD) [5]: form E | Appearance [6]: White | Content (%) [6]: 101.24% | Crystal Form (XRPD) [6]: form E | Total Impurities (%) [6]: 0.34% | Appearance [7]: White | Crystal Form (XRPD) [7]: form E | Appearance [8]: White | Content (%) [8]: 100.37% | Crystal Form (XRPD) [8]: form E | Total Impurities (%) [8]: 0.50% | Appearance [9]: White | Content (%) [9]: 98.70% | Crystal Form (XRPD) [9]: form E | Total Impurities (%) [9]: 0.49% | Appearance [10]: White | Content (%) [10]: 100.87% | Crystal Form (XRPD) [10]: form E | Total Impurities (%) [10]: 0.37% | photostability (stability under light radiation), conclusion in words: slight impurity generation | stability in dark, conclusion in words: good stability | stability under acceleration conditions, conclusion in words: superior | thermal stability (high temperature), conclusion in words: superior

C=CC(=O)N[C@H]1COC[C@H]1Nc1ncc(/C=C(\F)c2c(Cl)c(OC)cc(OC)c2Cl)cn1 [Crystal Form B]
Appearance (0 day (initial)): Off-white | Content (%) (0 day (initial)): 99.21% | Crystal Form (XRPD) (0 day (initial)): form B | Total Impurities (%) (0 day (initial)): 0.41% | Appearance [1]: Off-white | Content (%) [1]: 99.49% | Crystal Form (XRPD) [1]: form B | Total Impurities (%) [1]: 0.43% | Appearance [11]: Off-white | Crystal Form (XRPD) [11]: form B | Appearance [12]: Off-white | Content (%) [12]: 96.23% | Crystal Form (XRPD) [12]: form B | Total Impurities (%) [12]: 0.31% | Appearance [2]: Off-white | Content (%) [2]: 101.21% | Crystal Form (XRPD) [2]: form B | Total Impurities (%) [2]: 0.43% | Appearance [3]: Off-white | Content (%) [3]: 98.68% | Crystal Form (XRPD) [3]: form B | Total Impurities (%) [3]: 0.42% | Appearance [13]: Off-white | Crystal Form (XRPD) [13]: form B | Appearance [14]: Off-white | Content (%) [14]: 96.71% | Crystal Form (XRPD) [14]: form B | Total Impurities (%) [14]: 0.31% | Appearance [4]: Off-white | Content (%) [4]: 100.91% | Crystal Form (XRPD) [4]: form B | Total Impurities (%) [4]: 0.42% | Appearance [5]: Off-white | Crystal Form (XRPD) [5]: form B | Appearance [6]: Off-white | Content (%) [6]: 101.03% | Crystal Form (XRPD) [6]: form B | Total Impurities (%) [6]: 0.42% | Appearance [7]: Off-white | Crystal Form (XRPD) [7]: form B | Appearance [8]: Off-white | Content (%) [8]: 100.74% | Crystal Form (XRPD) [8]: form B | Total Impurities (%) [8]: 0.42% | Appearance [9]: Off-white | Content (%) [9]: 92.90% | Crystal Form (XRPD) [9]: form B | Total Impurities (%) [9]: 2.21% | Appearance [10]: Off-white | Content (%) [10]: 100.23% | Crystal Form (XRPD) [10]: form B | Total Impurities (%) [10]: 0.42% | photostability (stability under light radiation), conclusion in words: slight impurity generation | stability in dark, conclusion in words: good stability | stability under acceleration conditions, conclusion in words: superior | thermal stability (high temperature), conclusion in words: superior
